In brackets after ≈: the same amount, converted by molar mass. Read-outs that look alike come from different tables or passages of the source.
What was measured:
[1] = target: T1, jack bean urease (JBU; EC 3.5.1.5) (Canavalia ensiformis, UniProt P07374); assay: biochemical; conditions: JB urease, mean ± SEM, at least three experiments
T1 construct: purchased Sigma-Aldrich
Procedure: All chemicals and jack bean urease (JBU; EC 3.5.1.5) were purchased from Sigma-Aldrich. The urease inhibitory activity of N-thioacylated ciprofloxacin derivatives 3a–n was determined by Berthelot colorimetric method. The ammonia (NH3) produced by the urease enzyme along with indicator solutions including hypochlorite (OCl^−) and phenol make a blue-colored indophenol complex and the absorbance was measured at 625 nm by a Synergy H1 Hybrid multimode microplate reader (BioTek, Winooski, VT, USA).
Assay completed in two steps, at the first step the enzyme cocktail for each compound consisted of 50 µl urease enzyme (3 mg/ml in phosphate buffer, pH 7.4), 100 µl of test compound at different concentrations (0–10 mg/ml, in phosphate buffer, pH 7.4) and 850 µl urea solution (30 mM, in phosphate buffer, pH 7.4). This mixture was incubated at 37 °C for 30 min.
For the second step, each 100 µl of the above mixture was added to 500 µl of indicator solutions A (0.5 g phenol and 25 mg sodium nitroprusside in 500 ml distilled water) and 500 µl of B (2.5 g sodium hydroxide and 4.2 ml sodium hypochlorite (5%) in 500 ml distilled water) and further incubated at 37 °C for 30 min. The absorbance of blue-colored indophenol of each cell is related to the percentage of enzyme inhibition using the following equation: I%=1-T/C×100.
In this equation, I (%) is assigned to the percent of enzyme inhibition. (T) is assigned to the absorbance of our test compounds and C is assigned to the negative control absorbance which is the absorbance of our cocktail without any inhibitor compound. Thiourea and hydroxyurea were used as the positive controls. The IC50 values of test compounds were calculated using GraphPad PRISM 8.0 software (GraphPad, San Diego, CA, USA).

[2] = tested on: Escherichia coli ATCC 8739; assay: Antibacterial activity, agar dilution MIC; assay type: cell-based; conditions: ATCC8739
Procedure: (§1) Antibacterial activity of the synthesized compounds 3a–n were determined according to the agar dilution methods for Gram-positive bacteria strains (Staphylococcus aureus ATCC 6538 and Staphylococcus epidermidis ATCC 12228) and Gram-negative bacteria strains (Escherichia coli ATCC 8739 and Pseudomonas aeruginosa ATCC 9027).
(§2) Two Gram-positive bacteria strains (Staphylococcus aureus ATCC 6538 and Staphylococcus epidermidis ATCC 12228) and two Gram-negative bacteria strains (Escherichia coli ATCC 8739 and Pseudomonas aeruginosa ATCC 9027) were used for evaluation of the synthesized N-thioacylated ciprofloxacin derivatives 3a–n. All the strains were obtained from Iranian Microbial Collection (Pasteur Institute of Iran, Tehran, Iran). The antibacterial activity of the synthesized compounds was determined according to the agar dilution methods of the National Committee for Clinical Laboratory Standards[43].
(§3) Briefly, a series of twofold dilutions of test compounds 3a–n and ciprofloxacin, the standard antibiotic, were dissolved in 1 ml of DMSO. Each concentration was added to molten test agars that have been allowed to equilibrate in a water bath to 55 °C, to attain the concentrations ranging from 100 to 0.003 µg/ml. To compare the MIC values; the standard antibiotic, ciprofloxacin was also diluted in the same manner.
(§4) To prepare the inoculums suspensions, the bacteria were cultured on Muller-Hinton agar 12–16 h before the test. On the day of the experiment, a single colony of each bacteria was suspended Muller–Hinton broth to reach the turbidity of 0.5 McFarland standard (0.08–0.1 absorbance at 600 nm), which is approximately equivalent to 1.5 × 10^8 CFU/ml. The suspensions were then diluted at 1:10 in sterile saline to obtain a concentration of 1.5 × 10^7 CFU/ml. The plates were dot inoculated with 2 ul of each bacterial suspension and incubated at 37 °C overnight. The MIC was also defined as the lowest concentration of test compounds that completely prevents the growth of bacteria on agar plate following overnight incubation.

[3] = tested on: Pseudomonas aeruginosa ATCC 9027; assay: Antibacterial activity, agar dilution MIC; assay type: cell-based; conditions: ATCC9027, read-out: MIC P. aeruginosa
Procedure: as §1, §2, §3, §4

[4] = tested on: Staphylococcus aureus ATCC 6538; assay: Antibacterial activity, agar dilution MIC; assay type: cell-based; conditions: ATCC6538, read-out: MIC S. aureus
Procedure: as §1, §2, §3, §4

[5] = tested on: Staphylococcus epidermidis ATCC 12228; assay: Antibacterial activity, agar dilution MIC; assay type: cell-based; conditions: ATCC12228, read-out: MIC S. epidermidis
Procedure: as §1, §2, §3, §4

[6] = tested on: jack bean urease; set-up: method as in PMID 28574649; conditions: read-out: IC50 against urease; cited from earlier work
[7] = tested on: C. neoformans (H99); assay: Anti-ureolytic assay, colorimetric microdilution in urea broth; assay type: cell-based; conditions: Cryptococcus neoformans, urea broth pH 6
Procedure: (§5) The colorimetric microdilution technique using urea broth media (Merck, supplemented with glucose; pH 6 for C. neoformans) was used to determine the ureolytic activity of C. neoformans (H99), and clinical isolate of P. vulgaris treated with 3n according to previously reported procedures[18],[37].

[8] = tested on: clinical isolate of P. vulgaris; assay: as above; assay type: cell-based; conditions: Proteus vulgaris
Procedure: as §5

[9] = tested on: urease; set-up: method as in PMID 34179623; conditions: read-out: IC50 against urease; cited from earlier work
[10] = IC50 urease inhibitory activity
[11] = read-out: IC50 urease inhibitory activity

T1 sequence (P07374 whole entry, looked up): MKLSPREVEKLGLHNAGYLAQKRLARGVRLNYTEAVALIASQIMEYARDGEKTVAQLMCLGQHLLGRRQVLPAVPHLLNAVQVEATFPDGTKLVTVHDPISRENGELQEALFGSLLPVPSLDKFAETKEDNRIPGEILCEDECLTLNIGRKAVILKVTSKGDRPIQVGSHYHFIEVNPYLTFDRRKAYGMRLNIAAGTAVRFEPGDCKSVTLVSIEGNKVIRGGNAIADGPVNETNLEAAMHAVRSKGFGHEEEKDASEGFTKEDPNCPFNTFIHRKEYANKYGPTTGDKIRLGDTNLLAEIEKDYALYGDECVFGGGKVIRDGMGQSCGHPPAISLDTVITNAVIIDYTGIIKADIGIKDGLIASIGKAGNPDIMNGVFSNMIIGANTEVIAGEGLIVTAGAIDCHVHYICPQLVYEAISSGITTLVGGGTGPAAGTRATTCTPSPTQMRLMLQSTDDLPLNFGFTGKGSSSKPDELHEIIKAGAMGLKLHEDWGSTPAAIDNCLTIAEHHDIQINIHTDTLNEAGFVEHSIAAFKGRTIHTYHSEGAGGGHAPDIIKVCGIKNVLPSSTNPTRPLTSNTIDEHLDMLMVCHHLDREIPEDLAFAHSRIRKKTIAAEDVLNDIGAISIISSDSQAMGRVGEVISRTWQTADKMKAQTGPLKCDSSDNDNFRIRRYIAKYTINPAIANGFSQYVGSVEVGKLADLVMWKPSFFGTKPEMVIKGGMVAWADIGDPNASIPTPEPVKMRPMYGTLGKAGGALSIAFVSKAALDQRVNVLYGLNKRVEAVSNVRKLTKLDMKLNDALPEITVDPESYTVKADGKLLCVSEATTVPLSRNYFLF

Row | Compound | IC50 [1, 10] | MIC [2] | MIC [3] | MIC [4] | MIC [5] | melting point | IC50 [6] | IC50 [7] | IC50 [8] | IC50 [1, 11] | IC50 [9]
1 | O=C(O)c1cn(C2CC2)c2cc(N3CCN(C(=S)c4cccc(Cl)c4)CC3)c(F)cc2c1=O [Compound 3m, 7-(4-(3-Chlorophenylcarbonothioyl)piperazin-1-yl)-1-cyclopropyl-6-fluoro-4-oxo-1,4-dihydroquinoline-3-carboxylic acid] | 12.2 ± 0.24 µM | 0.048 µg/mL (≈ 0.0988 µM) | 6.25 µg/mL (≈ 12.9 µM) | 0.048 µg/mL (≈ 0.0988 µM) | 0.097 µg/mL (≈ 0.2 µM) | > 250 °C |  |  |  |  | 
2 | O=C(O)c1cn(C2CC2)c2cc(N3CCN(C(=S)c4ccc(Cl)cc4)CC3)c(F)cc2c1=O [Compound 3e, 7-(4-(4-Chlorophenylcarbonothioyl)piperazin-1-yl)-1-cyclopropyl-6-fluoro-4-oxo-1,4-dihydroquinoline-3-carboxylic acid] | 6.55 ± 0.05 µM | 0.024 µg/mL (≈ 0.0494 µM) | 0.781 µg/mL (≈ 1.61 µM) | 0.048 µg/mL (≈ 0.0988 µM) | 0.048 µg/mL (≈ 0.0988 µM) | > 250 °C |  |  |  |  | 
3 | COc1ccc(C(=S)N2CCN(c3cc4c(cc3F)c(=O)c(C(=O)O)cn4C3CC3)CC2)cc1 [Compound 3f, 1-Cyclopropyl-6-fluoro-7-(4-(4-methoxyphenylcarbonothioyl)piperazin-1-yl)-4-oxo-1,4-dihydroquinoline-3-carboxylic acid] | 21.36 ± 0.08 µM | 0.097 µg/mL (≈ 0.201 µM) | 3.12 µg/mL (≈ 6.49 µM) | 0.024 µg/mL (≈ 0.0498 µM) | 0.024 µg/mL (≈ 0.0498 µM) | > 250 °C |  |  |  |  | 
4 | O=C(O)c1cn(C2CC2)c2cc(N3CCN(C(=S)c4cccc(Oc5ccccc5)c4)CC3)c(F)cc2c1=O [Compound 3k, 1-Cyclopropyl-6-fluoro-4-oxo-7-(4-(3-phenoxyphenylcarbonothioyl)piperazin-1-yl)-1,4-dihydroquinoline-3-carboxylic acid] | 32.49 ± 0.32 µM | 0.097 µg/mL (≈ 0.178 µM) | 3.12 µg/mL (≈ 5.75 µM) | 0.39 µg/mL (≈ 0.717 µM) | 0.39 µg/mL (≈ 0.717 µM) | > 250 °C |  |  |  |  | 
5 | O=C(O)c1cn(C2CC2)c2cc(N3CCN(C(=S)c4cccc([N+](=O)[O-])c4)CC3)c(F)cc2c1=O [Compound 3g, 1-Cyclopropyl-6-fluoro-7-(4-(3-nitrophenylcarbonothioyl)piperazin-1-yl)-4-oxo-1,4-dihydroquinoline-3-carboxylic acid] | 5.87 ± 0.07 µM | 0.012 µg/mL (≈ 0.0242 µM) | 0.39 µg/mL (≈ 0.785 µM) | 0.024 µg/mL (≈ 0.0483 µM) | 0.024 µg/mL (≈ 0.0483 µM) |  |  |  |  |  | 
6 | COc1cccc(C(=S)N2CCN(c3cc4c(cc3F)c(=O)c(C(=O)O)cn4C3CC3)CC2)c1 [Compound 3b, 1-Cyclopropyl-6-fluoro-7-(4-(3-methoxyphenylcarbonothioyl)piperazin-1-yl)-4-oxo-1,4-dihydroquinoline-3-carboxylic acid] | 17.02 ± 0.16 µM | 0.097 µg/mL (≈ 0.201 µM) | 3.12 µg/mL (≈ 6.49 µM) | 0.048 µg/mL (≈ 0.0997 µM) | 0.024 µg/mL (≈ 0.0498 µM) | > 250 °C |  |  |  |  | 
7 | NC(=S)N1N=C(c2cc3ccccc3oc2=O)CC1c1ccccc1 (centres unmarked) [Compound D] |  |  |  |  |  |  | 0.000358 ± 1.7e-05 µM |  |  |  | 
8 | Cc1ccc(C(=S)N2CCN(c3cc4c(cc3F)c(=O)c(C(=O)O)cn4C3CC3)CC2)cc1 [Compound 3c, 1-Cyclopropyl-6-fluoro-7-(4-(4-methylphenylcarbonothioyl)piperazin-1-yl)-4-oxo-1,4-dihydroquinoline-3-carboxylic acid] | 20.63 ± 0.19 µM | 0.097 µg/mL (≈ 0.208 µM) | 3.12 µg/mL (≈ 6.71 µM) | 0.048 µg/mL (≈ 0.103 µM) | 0.024 µg/mL (≈ 0.0516 µM) | > 250 °C |  |  |  |  | 
9 | O=C(O)c1cn(C2CC2)c2cc(N3CCN(C(=S)c4cccc(O)c4)CC3)c(F)cc2c1=O [Compound 3j, 1-Cyclopropyl-6-fluoro-7-(4-(3-hydroxyphenylcarbonothioyl)piperazin-1-yl)-4-oxo-1,4-dihydroquinoline-3-carboxylic acid] | 19.6 ± 0.17 µM | 0.024 µg/mL (≈ 0.0513 µM) | 0.781 µg/mL (≈ 1.67 µM) | 0.097 µg/mL (≈ 0.207 µM) | 0.048 µg/mL (≈ 0.103 µM) | > 250 °C |  |  |  |  | 
10 | O=C(O)c1cn(C2CC2)c2cc(N3CCN(C(=S)c4ccc(F)cc4)CC3)c(F)cc2c1=O [Compound 3d, 1-Cyclopropyl-6-fluoro-7-(4-(4-fluorophenylcarbonothioyl)piperazin-1-yl)-4-oxo-1,4-dihydroquinoline-3-carboxylic acid] | 2.94 ± 0.04 µM | 0.097 µg/mL (≈ 0.207 µM) | 0.781 µg/mL (≈ 1.66 µM) | 0.097 µg/mL (≈ 0.207 µM) | 0.048 µg/mL (≈ 0.102 µM) | > 250 °C |  |  |  |  | 
11 | O=C(O)c1cn(C2CC2)c2cc(N3CCNCC3)c(F)cc2c1=O [Ciprofloxacin] |  | < 0.003 µg/mL | 0.048 µg/mL (≈ 0.145 µM) | 0.024 µg/mL (≈ 0.0724 µM) | 0.048 µg/mL (≈ 0.145 µM) |  |  |  |  |  | 
12 | O=C(O)c1cn(C2CC2)c2cc(N3CCN(C(=S)c4ccc([N+](=O)[O-])cc4)CC3)c(F)cc2c1=O [Compound 3n, 1-Cyclopropyl-6-fluoro-7-(4-(4-nitrophenylcarbonothioyl)piperazin-1-yl)-4-oxo-1,4-dihydroquinoline-3-carboxylic acid] | 2.05 ± 0.03 µM | 0.097 µg/mL (≈ 0.195 µM) | 1.56 µg/mL (≈ 3.15 µM) | 0.781 µg/mL (≈ 1.57 µM) | 0.39 µg/mL (≈ 0.785 µM) |  |  | 5.59 ± 2.38 µg/mL (≈ 11.3 µM) | 5.72 ± 1.31 µg/mL (≈ 11.5 µM) |  | 
13 | O=C(O)c1cn(C2CC2)c2cc(N3CCN(C(=S)c4ccccc4)CC3)c(F)cc2c1=O [Compound 3a, 1-Cyclopropyl-6-fluoro-4-oxo-7-(4-(phenylcarbonothioyl)piperazin-1-yl)-1,4 dihydroquinoline-3-carboxylic acid] | 10.61 ± 0.09 µM | 0.048 µg/mL (≈ 0.106 µM) | 6.25 µg/mL (≈ 13.8 µM) | 0.048 µg/mL (≈ 0.106 µM) | 0.024 µg/mL (≈ 0.0532 µM) | > 250 °C |  |  |  |  | 
14 | NC(=O)NO [Hydroxyurea, reference compound] |  |  |  |  |  |  |  |  |  | 100 ± 2.5 µM | 
15 | O=C(O)c1cn(C2CC2)c2cc(N3CCN(C(=S)c4ccccc4F)CC3)c(F)cc2c1=O [Compound 3i, 1-Cyclopropyl-6-fluoro-7-(4-(2-fluorophenylcarbonothioyl)piperazin-1-yl)-4-oxo-1,4-dihydroquinoline-3-carboxylic acid] | 15 ± 0.16 µM | 0.0195 µg/mL (≈ 0.0415 µM) | 2.5 µg/mL (≈ 5.32 µM) | 0.024 µg/mL (≈ 0.0511 µM) | 0.024 µg/mL (≈ 0.0511 µM) | > 250 °C |  |  |  |  | 
16 | NC(N)=S [Thiourea] |  |  |  |  |  |  | 4.72 ± 0.174 µM |  |  | 23 ± 0.84 µM | 21.7 ± 0.34 µM
17 | O=C(O)c1cn(C2CC2)c2cc(N3CCN(C(=S)c4cccc(F)c4)CC3)c(F)cc2c1=O [Compound 3h, 1-Cyclopropyl-6-fluoro-7-(4-(3-fluorophenylcarbonothioyl)piperazin-1-yl)-4-oxo-1,4-dihydroquinoline-3-carboxylic acid] | 4.08 ± 0.03 µM | < 0.003 µg/mL | 0.048 µg/mL (≈ 0.102 µM) | 0.048 µg/mL (≈ 0.102 µM) | 0.097 µg/mL (≈ 0.207 µM) |  |  |  |  |  | 
18 | O=C(O)c1cn(C2CC2)c2cc(N3CCN(C(=S)c4ccc(Br)cc4)CC3)c(F)cc2c1=O [Compound 3l, 7-(4-(4-Bromophenylcarbonothioyl)piperazin-1-yl)-1-cyclopropyl-6-fluoro-4-oxo-1,4-dihydroquinoline-3-carboxylic acid] | 8.21 ± 0.06 µM | 0.028 µg/mL (≈ 0.0528 µM) | 0.848 µg/mL (≈ 1.6 µM) | 0.048 µg/mL (≈ 0.0905 µM) | 0.048 µg/mL (≈ 0.0905 µM) | > 250 °C |  |  |  |  | 
